{"source": "patent US20130085469A1", "about": "“TAUROLIDINE FORMULATIONS AND DELIVERY: THERAPEUTIC TREATMENTS AND ANTIMICROBIAL PROTECTION AGAINST BACTERIAL BIOFILM FORMATION” (priority 2004, published 2013)", "key": {"[1]": {"tested_on": "infection from HD catheters", "details": "2 controlled studies; cited from earlier work"}, "[2]": {"details": "over several years at room temperature; cited from earlier work"}, "[3]": {"details": "in vivo; cited from earlier work"}, "Burkholderia cepacia": {"tested_on": "Burkholderia cepacia", "details": "delivered to the lung via a nebulizer; cited from earlier work"}, "[4]": {"assay": "Pharmacokinetics, central blood values after IV dose", "assay_type": "in vivo", "details": "human, corresponds to first time constant 0.3", "excerpt": "(§1) FIG. 1 illustrates the clearance of a typical antibiotic in the blood stream. It is a typical power decay curve after drug administration. Table 3 lists important variables which determine the biocidal effect on bacteria in the blood stream. The 5 factors in the upper portion of the table define the characteristics for Vancomycin, a typical antibiotic, and the characteristics for Taurolidine. Lower in the table is the portion called Surrogate Markers. These markers are Pharmacokinetic/Pharmacodynamic (PK/PD) values calculated from the concentration profiles in the body for specifics sites and drugs to guide therapy. The derived parameters have been estimated for Vancomycin (see FIG. 1, which is average values defined in the drug label with data obtained from human trials). Taurolidine Markers have been obtained from various literature sources. The Markers are useful in predicting antimicrobial drug efficacy in infection eradication. Of course, the values of the PK/PD parameters must be for the specific bacteria causing the infection and for the specific body site.\nKinetic parameters from Steinbach et al.^28 and infusion data from Willatts et al.^27 were used for the calculation. Taurolidine diffuses rapidly and body water concentration is equivalent to the plasma water concentration. […]"}, "typical bacteria [5]": {"tested_on": "typical bacteria", "assay": "Minimum bactericidal concentration (MBC)", "assay_type": "cell-based"}, "[6]": {"details": "30 g/day infused; cited from earlier work"}, "typical bacteria [7]": {"tested_on": "typical bacteria", "details": "cited from earlier work"}, "[8]": {"details": "cited from earlier work"}, "[9]": {"tested_on": "resistant Burkholderia cepacia", "details": "isolates from adult cystic fibrosis patients; cited from earlier work"}, "[10]": {"tested_on": "clinically significant bacterial strains and some important fungi", "details": "published test results; cited from earlier work"}, "[11]": {"details": "cited from earlier work", "remark": "listed apart in the source"}, "[12]": {"tested_on": "Planktonic form of bacteria", "details": "cited from earlier work"}, "[13]": {"assay": "Diffusion through silicone rubber catheter wall", "assay_type": "physicochemical", "details": "silicone rubber 2 mm ID, 0.5 mm wall, filled with water, 2% Taurolidine bath, UV-Vis", "procedure": "4. Taurolidine is a small molecule able to pass through human skin as well as through polymeric materials passively by diffusion which is driven by a concentration gradient. Experiments were conducted to determine if Taurolidine is able to diffuse through silicone rubber at a rate sufficient to achieve clinical significance. The experiment was conducted with a HD catheter-sized silicone rubber (i.e., 2 mm ID and 0.5 mm wall thickness). This was filled with water and capped off. It was immersed in a 2% Taurolidine bath. Within 3 days the inner volume equilibrated with the Taurolidine bath. The sensing instrument was a UV-Vis spectrometer."}, "bacteria [14]": {"tested_on": "bacteria", "details": "25 years of clinical use and many in-vitro tests; cited from earlier work"}, "bacteria [15]": {"tested_on": "bacteria", "details": "cited from earlier work"}, "[16]": {"assay": "Max tolerated dose and max potential delivery", "assay_type": "in vivo", "details": "calculated in footnote a", "excerpt": "as §1"}}, "note": "Where two headings read alike, the source gives them in different places.", "data": [{"smiles": "O=S1(=O)CCN(CN2CCS(=O)(=O)NC2)CN1", "note": "[Taurolidine, 4,4′ Methlyen-bis(tetrahydro-2H-1,4-thiadiazin-1,1dioxide)]", "values": [{"measurement": "reduction in infection compared to conventional heparin lock", "setting": "[1]", "value": "~2 controlled studies resulted in approximately 95%"}, {"measurement": "stability in powder or aqueous solution", "setting": "[2]", "value": "Taurolidine in powder or aqueous solution is stable"}, {"measurement": "concentration producing pain in most tissue on contact", "setting": "[3]", "value": "≥ 10000", "unit": "µg/mL"}, {"measurement": "pain on direct contact with most tissue", "setting": "[3]", "value": "Direct contact with most tissue causes intense pain"}, {"measurement": "reduction in bacterial load", "setting": "Burkholderia cepacia", "value": "failure to achieve a significant reduction in bacterial load in most patients"}, {"measurement": "half-life", "setting": "[4]", "value": "~2.3", "unit": "h"}, {"measurement": "MBC relative to antibiotics", "setting": "typical bacteria [5]", "value": "Taurolidine has an approximate 1000 times higher"}, {"measurement": "benefit of Taurolidine infusion in sepsis syndrome", "setting": "[6]", "value": "No benefits"}, {"measurement": "decremental effect of Taurolidine infusion", "setting": "[6]", "value": "not shown any statistically significant decremental effect"}, {"measurement": "MBC", "setting": "typical bacteria [7]", "value": "MBC than antibiotics. (i.e., MBC of 2 mg/ml vs. 2 ug/ml"}, {"measurement": "Max Tolerated Dose", "setting": "[8]", "value": ">30", "unit": "g/day^27"}, {"measurement": "in vitro response", "setting": "[9]", "value": "positive response"}, {"measurement": "broad spectrum antimicrobial effect", "setting": "[10]", "value": "Effective against substantially all clinically significant"}, {"measurement": "Peak Plasma Concentration (CP)", "setting": "[11]; cell adds: Not applicable for Taurolidine", "value": 150, "unit": "μg/ml^28"}, {"measurement": "T1/2 (Drug Half Life in Blood)", "setting": "[11]; first value of 70/140, footnote b, time const 0.57", "value": "~70", "unit": "min"}, {"measurement": "T1/2 (Drug Half Life in Blood)", "setting": "[11]; second value of 70/140, footnote b, first time constant 0.3", "value": "~140", "unit": "min"}, {"measurement": "exposure to achieve killing action", "setting": "[12]", "value": "Planktonic form of bacteria requires approximately 2 hours"}, {"measurement": "time for inner volume to equilibrate with the Taurolidine bath", "setting": "[13]", "value": "≤ 3", "unit": "days"}, {"measurement": "bacterial resistance", "setting": "bacteria [14]", "value": "1.", "unit": "No Bacterial Resistance"}, {"measurement": "concentration needed to show minimum effectiveness", "setting": "bacteria [15]", "value": "> 0.05", "unit": "%"}, {"measurement": "lower end range for MIC", "setting": "bacteria [15]", "value": "approximately 0.5 mg/mL"}]}, {"smiles": "CN[C@H](CC(C)C)C(=O)N[C@H]1C(=O)N[C@@H](CC(N)=O)C(=O)N[C@H]2C(=O)N[C@H]3C(=O)N[C@H](C(=O)N[C@H](C(=O)O)c4cc(O)cc(O)c4-c4cc3ccc4O)[C@H](O)c3ccc(c(Cl)c3)Oc3cc2cc(c3O[C@@H]2O[C@H](CO)[C@@H](O)[C@H](O)[C@H]2O[C@H]2C[C@](C)(N)[C@H](O)[C@H](C)O2)Oc2ccc(cc2Cl)[C@H]1O", "note": "[Vancomycin]", "values": [{"measurement": "Peak Plasma Concentration (CP)", "setting": "[11]; average values from drug label, FIG. 1", "value": 50, "unit": "µg/mL"}, {"measurement": "T1/2 (Drug Half Life in Blood)", "setting": "[11]", "value": "~7", "unit": "hours^30"}, {"measurement": "MIC (Minimum Inhibitory Concentration)", "setting": "bacteria [15]", "value": "<4", "unit": "μg/mL^29"}, {"measurement": "Max Tolerated Dose", "setting": "[16]", "value": ">5 g/day (See footnote a)"}]}]}
